From paper PMC9503212, “A High-Affinity ^64Cu-Labeled Ligand for PET Imaging of Hepsin: Design, Synthesis, and Characterization” (Pharmaceuticals, 2022)

How the values were obtained:
Recombinant hepsin = target: T1, Recombinant hepsin (Homo sapiens, UniProt P05981); assay: In vitro binding assay (fluorogenic BOC–QAR–AMC substrate), hepsin; type: biochemical; conditions: for Ki: 0.3 nM enzyme, 150 μM substrate, Ki by Cheng and Prusoff from IC50, three determinations; for Matriptase/ Hepsin (hepsin selectivity, ratio of Ki values): ratio of Ki values for matriptase and hepsin
T1 construct: purchased R&D Systems
T1 sequence (P05981 163-417 limits assumed): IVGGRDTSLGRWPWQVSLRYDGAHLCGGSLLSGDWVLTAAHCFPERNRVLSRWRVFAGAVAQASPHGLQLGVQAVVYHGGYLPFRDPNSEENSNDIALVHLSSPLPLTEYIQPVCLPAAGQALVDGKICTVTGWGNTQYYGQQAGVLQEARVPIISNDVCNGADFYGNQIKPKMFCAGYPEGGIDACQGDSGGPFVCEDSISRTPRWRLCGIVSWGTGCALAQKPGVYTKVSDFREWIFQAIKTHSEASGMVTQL
T1 sequence (P05981 1-162 partner limits assumed): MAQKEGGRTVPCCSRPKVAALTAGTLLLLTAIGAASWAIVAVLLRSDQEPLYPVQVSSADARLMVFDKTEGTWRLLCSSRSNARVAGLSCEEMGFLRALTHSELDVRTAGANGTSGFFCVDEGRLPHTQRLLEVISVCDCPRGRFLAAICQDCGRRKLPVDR
Description: Recombinant hepsin (R&D Systems, Minneapolis, MN, USA) was diluted 5.5-fold in TNC buffer (25 mM Tris-HCl, 150 mM NaCl, 5 mM CaCl2, 0.01% Triton X-100, pH 8) and incubated at 37 °C. After 24 h, hepsin was diluted in glycerol to 50%. The stock solution (1.2 μM) was stored at −81 °C and diluted in TNC buffer before use.
(§1) Ligands (0.03 nM–30 µM) were diluted in DMSO (2% final concentration) and mixed with either activated hepsin or matriptase in 96-well plates. The final assay concentration for both hepsin and matriptase in TNC buffer was 0.3 nM. After an incubation period of 30 min at 37 °C, BOC–QAR–AMC substrate (R&D Systems) was added to hepsin and matriptase assay mixtures. The final substrate concentration was 150 μM in a final reaction volume of 100 μL.
(§2) Changes in fluorescence (excitation at 380 nm and emission at 460 nm) were measured at room temperature over 2 h in a BioTek Synergy two-plate reader (Agilent Technologies). Using the GraphPad Prism version 6.02 software (San Diego, CA, USA), a non-linear curve fit was performed to determine the inhibitor IC50s from a plot of the mean reaction velocity versus the inhibitor concentration. The IC50 values represent the average of three experimental determinations (Figure S1). Ki values were calculated using the Cheng and Prusoff equation (Ki = IC50/(1 + [S]/Km)).

matriptase = target: T2, matriptase (Homo sapiens, UniProt Q9Y5Y6); assay: In vitro binding assay (fluorogenic BOC–QAR–AMC substrate), matriptase; type: biochemical; conditions: 0.3 nM enzyme, 150 μM substrate, Ki by Cheng and Prusoff from IC50, three determinations
T2 sequence (Q9Y5Y6 1-855): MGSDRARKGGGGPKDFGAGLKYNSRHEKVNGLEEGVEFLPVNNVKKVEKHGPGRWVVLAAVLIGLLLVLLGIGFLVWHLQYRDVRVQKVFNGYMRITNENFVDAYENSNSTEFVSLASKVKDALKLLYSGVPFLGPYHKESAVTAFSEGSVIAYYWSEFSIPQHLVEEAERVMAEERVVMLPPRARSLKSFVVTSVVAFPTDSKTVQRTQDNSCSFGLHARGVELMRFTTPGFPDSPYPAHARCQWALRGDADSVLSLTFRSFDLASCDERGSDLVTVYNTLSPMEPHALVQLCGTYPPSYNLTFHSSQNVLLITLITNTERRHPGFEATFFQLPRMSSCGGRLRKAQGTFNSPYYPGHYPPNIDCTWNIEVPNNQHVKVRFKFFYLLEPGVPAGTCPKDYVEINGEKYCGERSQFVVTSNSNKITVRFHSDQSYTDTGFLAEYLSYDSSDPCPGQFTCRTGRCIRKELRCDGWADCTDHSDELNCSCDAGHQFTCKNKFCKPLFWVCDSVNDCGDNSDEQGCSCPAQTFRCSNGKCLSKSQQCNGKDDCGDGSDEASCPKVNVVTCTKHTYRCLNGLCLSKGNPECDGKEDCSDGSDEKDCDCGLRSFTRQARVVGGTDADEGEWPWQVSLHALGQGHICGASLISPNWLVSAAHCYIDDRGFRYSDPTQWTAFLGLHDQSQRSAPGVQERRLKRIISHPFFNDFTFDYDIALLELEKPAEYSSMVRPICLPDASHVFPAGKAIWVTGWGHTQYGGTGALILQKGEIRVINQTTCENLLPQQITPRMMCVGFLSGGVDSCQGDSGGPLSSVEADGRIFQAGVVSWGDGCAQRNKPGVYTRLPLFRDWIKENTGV
Description: as §1, §2

hepsin = conditions: cited from earlier work

Compound	Ki (Recombinant hepsin)	Matriptase/ Hepsin (hepsin selectivity, ratio of Ki values) (Recombinant hepsin)	Ki (matriptase)	hepsin selectivity (ratio of Ki values for matriptase and hepsin), previous reported value (hepsin)	Ki (hepsin; read-out: Ki hepsin, previous reported value)
CC(=O)N[C@@H](CC(C)C)C(=O)NC(CCCNC(=N)N)C(=O)c1nccs1 (some centres unmarked) [Ac–Leu–Arg–kt, reference compound]	7.8 ± 2.8 nM	7.2	56.5 ± 2.7 nM	14.9	22.4 ± 0.5 nM
CC(C)C[C@H](NC(=O)CCc1cn(CCOCCOCCF)nn1)C(=O)NC(CCCNC(=N)N)C(=O)c1nccs1 (stereo partly drawn) [Ligand 1A, (2S)-2-(3-(1-(2-(2-(2-Fluoroethoxy)ethoxy)ethyl)-1H-1,2,3-triazol-4-yl)propanamido)-N-(5-guanidino-1-oxo-1-(thiazol-2-yl)pentan-2-yl)-4-methylpentanamide]	0.9 ± 0.1 nM	60.6	54.5 ± 4.9 nM	–	–
CC(C)C[C@H](NC(=O)CCc1cn(CCOCCOCCF)nn1)C(=O)NC(CCCNC(=N)N)C(=O)c1nccs1 (stereo partly drawn) [Ligand 1B, (2S)-2-(3-(1-(2-(2-(2-Fluoroethoxy)ethoxy)ethyl)-1H-1,2,3-triazol-4-yl)propanamido)-N-(5-guanidino-1-oxo-1-(thiazol-2-yl)pentan-2-yl)-4-methylpentanamide]	0.5 ± 0.1 nM	40.0	20 ± 0.6 nM	–	–
^natCu-DOTA-conjugated 1-amino-N-(1-((5-guanidino-1-oxo-1-(thiazol-2-yl)pentan-2-yl)amino)-4-methyl-1-oxopentan-2-yl)-3,6,9,12-tetraoxapentadecan-15-amide [Ligand 3A]	15 ± 0.6 nM	16.6	249 ± 12.3 nM	–	–
^natCu-DOTA-conjugated 1-amino-N-(1-((5-guanidino-1-oxo-1-(thiazol-2-yl)pentan-2-yl)amino)-4-methyl-1-oxopentan-2-yl)-3,6,9,12-tetraoxapentadecan-15-amide [Ligand 3B]	5.1 ± 0.3 nM	23.5	120 ± 3.5 nM	–	–
^natGa-DOTA-conjugated 1-amino-N-(1-((5-guanidino-1-oxo-1-(thiazol-2-yl)pentan-2-yl)amino)-4-methyl-1-oxopentan-2-yl)-3,6,9,12-tetraoxapentadecan-15-amide [Ligand 2A]	14.3 ± 1.2 nM	11.6	166 ± 8.2 nM	–	–
^natGa-DOTA-conjugated 1-amino-N-(1-((5-guanidino-1-oxo-1-(thiazol-2-yl)pentan-2-yl)amino)-4-methyl-1-oxopentan-2-yl)-3,6,9,12-tetraoxapentadecan-15-amide [Ligand 2B]	5.7 ± 0.2 nM	12.0	68.2 ± 2.4 nM	–	–
